Each structure is given as a SMILES string.

Common to all, as to parameters: dose 3 mg/kg, route intravenous
Common to all, as to conditions: in vivo

In data set [1] the test system is Rattus norvegicus. The data set is described as follows: AUC in Sprague-Dawley rat at 3 mg/kg, iv. In kind it is ADME, organism-based, Plasma.
The subject of data set [2] is Rattus norvegicus. Description: Clearance in Sprague-Dawley rat at 3 mg/kg, iv. In kind it is ADME, organism-based.
Data set [3] concerns Rattus norvegicus. Description: Half life in Sprague-Dawley rat at 3 mg/kg, iv. In kind it is ADME, organism-based.
In data set [4] the test system is Rattus norvegicus. Description: Terminal Phase volume of distribution at steady state in Sprague-Dawley rat at 3 mg/kg, iv. Type of data set: ADME, organism-based.

The term AUC denotes concentration integrated over time. Low readings indicate low exposure, high ones high exposure. Regarding `NCCCn1cc(-c2cc(-c3cc4ccccc4s3)c3[nH]ncc3c2)c2nc(N)ncc21`, the AUC with Rattus norvegicus [1] was determined as 4200 ng·h/mL. This compound returned a CL in the data set on Rattus norvegicus [2] of 28.3 mL/min/kg. The t1/2 with Rattus norvegicus [3] is 5.5 h. Further, the Vbeta in the data set with Rattus norvegicus [4] was determined as 4 L/kg.
